Source: patent US20220220100A1 (SOLUTIA CANADA INC., priority 2019, published 2022)

Experiments:
Type in all cases: physicochemical
[1] = Solubility in Rhodiasolv IRIS solvent; settings: Rhodiasolv IRIS (dimethyl-2-methyl glutarate); wt %
Text: A compound with greater solubility allows for a formulation or material with a greater concentration of coloured molecule to be incorporated into a composition. This may allow for increasing the contrast ratio for a compound with a lesser absorbance at PSS. Examples of solubilizing groups for the compound include alkoxy, ether, ester or siloxy groups. In various embodiments, compounds may be soluble in the solvent component at room temperature at about 6 wt %, 7 wt %, 8 wt %, 9 wt %, 10 wt % or greater for testing to determine whether a compound has application as an exterior glazing or optical filter. If the solubility of a compound in the solvent component is too low, then insufficient darkening may be achieved in the ring-closed configuration, depending on conditions of use for the compound.
Chromophore solutions in Rhodiasolv IRIS were prepared at 1 to 10 wt % loading. Solutions were prepared in a glovebox by charging the chromophore and Rhodiasolv IRIS to a trace-clean vial, and the solution was stirred on a hotplate at 90° C. for 2-24 hours. After cooling, the chromophore solution was injected into glass weathering cells and the fill and vent ports were sealed with a thin disc of Kalrez (FFKM Perfluorinated Elastomer) and secured with a clamp and set-screw. The weathering cells were filled and sealed inside the glove box.

[2] = Photostationary state (PSS) and lambda max under simulated sunlight (solar simulator)
Procedure, shortened: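 Compound at 2×10^−5 M in solvent was first photofaded with visible light until visible absorption stabilized, then irradiated with simulated sunlight (xenon-arc solar simulator) until the UV/Vis spectrum stabilized. A second sample was run the same way with a UV-blocking film in the light path.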

[3] = UV/Vis absorbance at 400 nm and Yellowness Index of the ring-open isomer
Procedure, shortened: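 Compound measured as a 2×10^−5 M solution in a 1 cm cuvette after photofading with visible light until visible absorption stabilized. Absorbance at 400 nm and Yellowness Index refer to this ring-open isomer.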

Structure (SMILES): COc1cc2oc(-c3ccc(C(C)(C)C)cc3)c(C3=C(c4cc(-c5cc6c(s5)C(C)(C)CCCC6(C)C)sc4-c4cc5c(s4)C(C)(C)CCCC5(C)C)C(F)(F)C(F)(F)C3(F)F)c2cc1OC [Chromophore S405]
- Solubility in Rhodiasolv IRIS [1]: >1%
- PSS (SS) ([2]; absorbance at photostationary state, simulated sunlight (solar simulator), 2×10^−5 M solution): 0.381
- λmax (nm) ([2]; peak in the visible range, ring-closed (dark) state): 598 nm
- YI (Yellowness Index) [3]: 7.26
- Abs @ 400 nm, RO (Absorption of ring-open isomer at 400 nm) ([3]; 2×10^−5 M solution, 1 cm pathlength cuvette): 0.143
